Measurements: patent publication US20200016136A1 (VIIV HEALTHCARE UK (NO. 5) LIMITED, priority 2017, published 2020)

What follows are compounds tested on NL-RLuc virus (recombinant NL4-3 HIV with Renilla Luciferase gene) (assay: Inhibition of HIV replication (NL-RLuc virus in MT-2 cells, luciferase readout)). Settings: MT2, 120 h.
Format: cell-based, Human immunodeficiency virus (HIV)
Method in brief: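 EC50 derived via median effect equation from at least 2 experiments, using luciferase expression as virus-growth readout. Replication-competent NL-RLuc reporter virus (nef partly replaced by Renilla luciferase) infected MT-2 cells with serial compound dilutions; 5-day incubation in RPMI 1640 plus 10% FBS.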
Compound `Cc1nc(C)c([C@H](OC(C)(C)C)C(=O)O)c(N2CCC(C)(C)CC2)c1-c1ccc2c(c1)CCN(c1cc(N3CCOCC3)cc(F)n1)C2` [Example 87, (S)-2-(tert-Butoxy)-2-(4-(4,4-dimethylpiperidin-1-yl)-5-(2-(6-fluoro-4-morpholinopyridin-2-yl)-1,2,3,4-tetrahydroisoquinolin-6-yl)-2,6-dimethylpyridin-3-yl)acetic Acid] has an EC50 of 5 nM.
With `Cc1nc(C)c([C@H](OC(C)(C)C)C(=O)O)c(N2CCC(C)(C)CC2)c1-c1ccc2c(c1)CCN(c1ncnc(N3C[C@@H](C)O[C@@H](C)C3)n1)C2` [Example 68, (S)-2-(tert-Butoxy)-2-(5-(2-(4-((2R,6S)-2,6-dimethylmorpholino)-1,3,5-triazin-2-yl)-1,2,3,4-tetrahydroisoquinolin-6-yl)-4-(4,4-dimethylpiperidin-1-yl)-2,6-dimethylpyridin-3-yl)acetic Acid] the EC50 was 1 nM.
Work on `Cc1nc(C)c([C@H](OC(C)(C)C)C(=O)O)c(N2CCC(C)(C)CC2)c1-c1ccc2c(c1)CCN(c1ncnc(N3CCOCC3)c1C)C2` [Example 77, (S)-2-(tert-Butoxy)-2-(4-(4,4-dimethylpiperidin-1-yl)-2,6-dimethyl-5-(2-(5-methyl-6-morpholinopyrimidin-4-yl)-1,2,3,4-tetrahydroisoquinolin-6-yl)pyridin-3-yl)acetic Acid] yielded an EC50 of 0.6 nM.
`Cc1nc(C)c([C@H](OC(C)(C)C)C(=O)O)c(N2CCC(C)(C)CC2)c1-c1ccc2c(c1)CCN(c1ncc(F)cc1F)C2` [Example 72, (S)-2-(tert-Butoxy)-2-(5-(2-(3,5-difluoropyridin-2-yl)-1,2,3,4-tetrahydroisoquinolin-6-yl)-4-(4,4-dimethylpiperidin-1-yl)-2,6-dimethylpyridin-3-yl)acetic Acid] showed an EC50 of 8 nM.
Compound `Cc1nc(C#N)c(-c2ccc3c(c2)CCN(c2ncnc4c2oc2ccccc24)C3)c(N2CCC(C)(C)CC2)c1[C@H](OC(C)(C)C)C(=O)O` [Example 50] has an EC50 of 4 nM.
`Cc1cccc(Cl)c1CN1CCc2cc(-c3cnc(Cl)c([C@H](OC(C)(C)C)C(=O)O)c3N3CCC(C)(C)CC3)ccc2C1` [Example 102, (S)-2-(tert-Butoxy)-2-(2-chloro-5-(2-(2-chloro-6-methylbenzyl)-1,2,3,4-tetrahydroisoquinolin-6-yl)-4-(4,4-dimethylpiperidin-1-yl)pyridin-3-yl)acetic Acid] was tested, and the EC50 was 8 nM.
`Cc1nc(C)c([C@H](OC(C)(C)C)C(=O)O)c(N2CCC(C)(C)CC2)c1-c1ccc2c(c1)CCN(c1ccnc(N3CCCC3)n1)C2` [Example 20, (2S)-2-(tert-Butoxy)-2-[4-(4,4-dimethylpiperidin-1-yl)-2,6-dimethyl-5-{2-[2-(pyrrolidin-1-yl)pyrimidin-4-yl]-1,2,3,4-tetrahydroisoquinolin-6-yl}pyridin-3-yl]acetic Acid] was tested, and the EC50 was 2 nM.
`Cc1nc(C)c([C@H](OC(C)(C)C)C(=O)O)c(N2CCC(C)(C)CC2)c1-c1ccc2c(c1)CCN(c1ncnc3c1oc1ccc(Cl)cc13)C2` [Example 122, (S)-2-(tert-Butoxy)-2-(5-(2-(8-chlorobenzofuro[3,2-d]pyrimidin-4-yl)-1,2,3,4-tetrahydroisoquinolin-6-yl)-4-(4,4-dimethylpiperidin-1-yl)-2,6-dimethylpyridin-3-yl)acetic Acid] showed an EC50 of 5 nM.
Compound `Cc1nc(C)c([C@H](OC(C)(C)C)C(=O)O)c(N2CCC(C)(C)CC2)c1-c1ccc2c(c1)CCN(c1ccnc(N3C4CCC3CN(C)C4)n1)C2` [Example 42, (2S)-2-(tert-Butoxy)-2-[4-(4,4-dimethylpiperidin-1-yl)-2,6-dimethyl-5-[2-(2-{3-methyl-3,8-diazabicyclo[3.2.1]octan-8-yl}pyrimidin-4-yl)-1,2,3,4-tetrahydroisoquinolin-6-yl]pyridin-3-yl]acetic Acid] has an EC50 of 4 nM.
For `Cc1nc(C)c([C@H](OC(C)(C)C)C(=O)O)c(N2CCC(C)(C)CC2)c1-c1ccc2c(c1)CCN(c1cc(N3CCCCC3)ncn1)C2` [Example 124, (S)-2-(tert-Butoxy)-2-(4-(4,4-dimethylpiperidin-1-yl)-2,6-dimethyl-5-(2-(6-(piperidin-1-yl)pyrimidin-4-yl)-1,2,3,4-tetrahydroisoquinolin-6-yl)pyridin-3-yl)acetic Acid], the EC50 was 17 nM.
For `Cc1nc(C)c([C@H](OC(C)(C)C)C(=O)O)c(N2CCC(C)(C)CC2)c1-c1ccc2c(c1)CCN(c1ccnc(N3CCC(C(C)(C)O)CC3)n1)C2` [Example 71, (S)-2-(tert-Butoxy)-2-(4-(4,4-dimethylpiperidin-1-yl)-5-(2-(2-(4-(2-hydroxypropan-2-yl)piperidin-1-yl)pyrimidin-4-yl)-1,2,3,4-tetrahydroisoquinolin-6-yl)-2,6-dimethylpyridin-3-yl)acetic Acid], the EC50 was 4 nM.
`Cc1ncc(-c2ccc3c(c2)CCN(c2nccc(N4CCOCC4)n2)C3)c(N2CCC(C)(C)CC2)c1[C@H](OC(C)(C)C)C(=O)O` [Example 26, (2S)-2-(tert-Butoxy)-2-[4-(4,4-dimethylpiperidin-1-yl)-2-methyl-5-{2-[4-(morpholin-4-yl)pyrimidin-2-yl]-1,2,3,4-tetrahydroisoquinolin-6-yl}pyridin-3-yl]acetic Acid] gave an EC50 of 0.8 nM.
`CC1(C)CCN(c2c(-c3ccc4c(c3)CCN(c3nccc(N5CCC(C(C)(C)O)CC5)n3)C4)cnc(Cl)c2[C@H](OC(C)(C)C)C(=O)O)CC1` [Example 93, (S)-2-(tert-Butoxy)-2-(2-chloro-4-(4,4-dimethylpiperidin-1-yl)-5-(2-(4-(4-(2-hydroxypropan-2-yl)piperidin-1-yl)pyrimidin-2-yl)-1,2,3,4-tetrahydroisoquinolin-6-yl)pyridin-3-yl)acetic Acid] gave an EC50 of 8 nM.
`CCC(C)(C)O[C@H](C(=O)O)c1c(C)nc(C)c(-c2ccc3c(c2)CCN(c2ncnc4c2oc2ccccc24)C3)c1N1CCC(C)(C)CC1` [Example 141, (S)-2-(5-(2-(Benzofuro[3,2-d]pyrimidin-4-yl)-1,2,3,4-tetrahydroisoquinolin-6-yl)-4-(4,4-dimethylpiperidin-1-yl)-2,6-dimethylpyridin-3-yl)-2-(tert-pentyloxy)acetic Acid] gave an EC50 of 2 nM.
For `Cc1ccc2c(n1)oc1c(N3CCc4cc(-c5cnc(C)c([C@H](OC(C)(C)C)C(=O)O)c5N5CCC(C)(C)CC5)ccc4C3)ncnc12` [Example 47, (2S)-2-(tert-Butoxy)-2-[4-(4,4-dimethylpiperidin-1-yl)-2-methyl-5-(2-{11-methyl-8-oxa-3,5,10-triazatricyclo[7.4.0.0^2,7]trideca-1(9),2,4,6,10,12-hexaen-6-yl}1,2,3,4tetrahydroisoquinolin-6-yl)pyridin-3-yl]acetic Acid], the EC50 was 1 nM.
`Cc1cccc(Cl)c1CN1CCc2cc(-c3c(NCCn4cccn4)nc(C)c([C@H](OC(C)(C)C)C(=O)O)c3N3CCC(C)(C)CC3)ccc2C1` [Example 7, (S)-2-(6-((2-(1H-Pyrazol-1-yl)ethyl)amino)-5-(2-(2-chloro-6-methylbenzyl)-1,2,3,4-tetrahydroisoquinolin-6-yl)-4-(4,4-dimethylpiperidin-1-yl)-2-methylpyridin-3-yl)-2-(tert-butoxy)acetic Acid] was tested, and the EC50 was 13 nM.
With `Cc1nc(C)c([C@H](OC(C)(C)C)C(=O)O)c(N2CCC(C)(C)CC2)c1-c1ccc2c(c1)CCN(c1nccc(N3CC4CCC(C3)O4)n1)C2` [Example 30, (2S)-2-(tert-Butoxy)-2-[4-(4,4-dimethylpiperidin-1-yl)-2,6-dimethyl-5-[2-(4-{8-oxa-3-azabicyclo[3.2.1]octan-3-yl}pyrimidin-2-yl)-1,2,3,4-tetrahydroisoquinolin-6-yl]pyridin-3-yl]acetic Acid] the EC50 was 1 nM.
In the case of `Cc1nc(C)c([C@H](OC(C)(C)C)C(=O)O)c(N2CCC(C)(C)CC2)c1-c1ccc2c(c1)CCN(c1ccc(C(F)(F)F)cn1)C2` [Example 143, (S)-2-(tert-butoxy)-2-(4-(4,4-dimethylpiperidin-1-yl)-2,6-dimethyl-5-(2-(5-(trifluoromethyl)pyridin-2-yl)-1,2,3,4-tetrahydroisoquinolin-6-yl)pyridin-3-yl)acetic Acid], the EC50 is reported as 14 nM.
With `Cc1cccc(Cl)c1CN1CCc2cc(-c3c(CO)nc(Cl)c([C@H](OC(C)(C)C)C(=O)O)c3N3CCC(C)(C)CC3)ccc2C1` [Example 97, (S)-2-(tert-Butoxy)-2-(2-chloro-5-(2-(2-chloro-6-methylbenzyl)-1,2,3,4-tetrahydroisoquinolin-6-yl)-4-(4,4-dimethylpiperidin-1-yl)-6-(hydroxymethyl)pyridin-3-yl)acetic Acid] the EC50 was 2 nM.
`Cc1nc(C)c([C@H](OC(C)(C)C)C(=O)O)c(N2CCC(C)(C)CC2)c1-c1ccc2c(c1)CCN(c1cccc(C(=O)O)n1)C2` [Example 142, (S)-6-(6-(5-(tert-Butoxy(carboxy)methyl)-4-(4,4-dimethylpiperidin-1-yl)-2,6-dimethylpyridin-3-yl)-3,4-dihydroisoquinolin-2(1H)-yl)picolinic Acid] gave an EC50 of 381 nM.
Work on `CC1(C)CCN(c2c(-c3ccc4c(c3)CCN(c3ncnc5c3oc3ccccc35)C4)c(CNCC3CCOCC3)nc(Cl)c2[C@H](OC(C)(C)C)C(=O)O)CC1` [Example 111, (S)-2-(5-(2-(Benzofuro[3,2-d]pyrimidin-4-yl)-1,2,3,4-tetrahydroisoquinolin-6-yl)-2-chloro-4-(4,4-dimethylpiperidin-1-yl)-6-((((tetrahydro-2H-pyran-4-yl)methyl)amino)methyl)pyridin-3-yl)-2-(tert-butoxy)acetic Acid] yielded an EC50 of 0.7 nM.
Compound `Cc1ccccc1-c1cccc(N2CCc3cc(-c4c(C)nc(C)c([C@H](OC(C)(C)C)C(=O)O)c4N4CCC(C)(C)CC4)ccc3C2)n1` [Example 88, (S)-2-(tert-Butoxy)-2-(4-(4,4-dimethylpiperidin-1-yl)-2,6-dimethyl-5-(2-(6-(o-tolyl)pyridin-2-yl)-1,2,3,4-tetrahydroisoquinolin-6-yl)pyridin-3-yl)acetic Acid] has an EC50 of 25 nM.
With `Cc1nc(C)c([C@H](OC(C)(C)C)C(=O)O)c(N2CCC(C)(C)CC2)c1-c1ccc2c(c1)CCN(c1cc(N3CCOCC3)c(F)cn1)C2` [Example 91, (S)-2-(tert-Butoxy)-2-(4-(4,4-dimethylpiperidin-1-yl)-5-(2-(5-fluoro-4-morpholinopyridin-2-yl)-1,2,3,4-tetrahydroisoquinolin-6-yl)-2,6-dimethylpyridin-3-yl)acetic Acid] the EC50 was 9 nM.
